A word on the Km: it is the concentration of substrate that gives half-maximal velocity.

Test [1] addresses T1, TcHGXPRT (Trypanosoma cruzi, UniProt Q4DRC3).
T1 sequence (Q4DRC3 1-231): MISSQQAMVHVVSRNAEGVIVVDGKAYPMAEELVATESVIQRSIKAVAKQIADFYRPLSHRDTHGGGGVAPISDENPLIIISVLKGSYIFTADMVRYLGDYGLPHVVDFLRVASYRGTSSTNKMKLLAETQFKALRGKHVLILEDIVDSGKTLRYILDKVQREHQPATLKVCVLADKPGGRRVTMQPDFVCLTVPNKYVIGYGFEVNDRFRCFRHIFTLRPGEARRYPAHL
As to the kind of experiment: Dead-end inhibition studies of TcHGXPRT. The format is biochemical.

Test [2] addresses T1, TcHGXPRT. Kind of test: Initial rate studies of TcHGXPRT, GMP biosynthesis. In kind it is biochemical. The settings on record: for kcat: GMP biosynthesis; for Ki: Ki,PRPP.
A further test relates to TcA (HGPRT). The note with it: variable 6-oxopurine, PRPP 1 mM, ref Glockzin et al., 2022.[43]; cited from earlier work.
For the next test, the system named is TcHGPRT. The settings on record: variable substrate PRPP (20–215 μM); ref Wenck et al., 2004.[30]; cited from earlier work.
The target of test [3] is T1, TcHGXPRT. Kind of test: Product inhibition studies of TcHGXPRT. In kind it is biochemical. The settings on record: PRPP 1 mM.
Another test concerns PfHGXPRT. The settings on record: read-out: apparent Km, Xan as substrate; cited from earlier work.
Setting [4] is: variable substrate Guanine (10–300 μM) at fixed PRPP levels.
Where [5] appears, read: variable substrate PRPP (1–78 μM) at fixed Gua levels.

Structures are written as SMILES. Marks after values point to notes of the source that are not given here.

With `O=c1[nH]c(=O)c2[nH]ccc2[nH]1` [9-deazaxanthine], at TcHGXPRT [1], the Ki was 70 ± 10 µM. The Inhibition pattern result is recorded as “C ^e” at TcHGXPRT [1] (9-deazaxanthine (0–250 μM) vs. variable Xan (3–100 μM), PRPP 1 mM) and “UC ^e” on TcHGXPRT [1] (9-deazaxanthine (0–600 μM) vs. variable PRPP (23–750 μM), Xan 120 μM). The Kii on TcHGXPRT [1] (9-deazaxanthine vs. variable PRPP, Xan 120 μM, 37 °C, pH 8.3, 12 mM MgCl2) worked out at 490 ± 40 µM.
Regarding `Nc1nc2nc[nH]c2c(=O)[nH]1` [Gua, guanine], the kcat on TcHGXPRT [2] (setting [4]) is reported as 0.46 ± 0.01 s^–1. Further, in the test on TcA (HGPRT), the Km is 19 ± 1 µM and the kcat is reported as 32 ± 1 ^b s^–1. For the same molecule, in the test with TcHGPRT, the KGua is on record as 12 ± 1 ^d μM and the kcat/KGua is given as 2650 ^d × 10^3 M^–1 s^–1.
On to `O=c1[nH]cnc2nc[nH]c12` [Hx, hypoxanthine], for which, in the test with TcA (HGPRT), the Km was 13 ± 4 µM and the kcat is 32 ± 1 ^b s^–1.
On to `O=P(O)(O)OP(=O)(O)O` [PPi, pyrophosphate], for which the Inhibition pattern result on TcHGXPRT [3] (PPi (0–200 μM) vs. variable Xan (2.5–150 μM)) is given as “NC ^e”. Moreover, at TcHGXPRT [3] (PPi vs. variable Xan), the Kii was 1400 ± 400 µM. The Ki on TcHGXPRT [3] (read-out: Kis, PPi vs. variable Xan) was found to be 190 ± 40 µM.
In the case of `O=P(O)(O)OC[C@H]1O[C@H](OP(=O)(O)OP(=O)(O)O)[C@H](O)[C@@H]1O` [PRPP, 5-phospho-D-ribose 1-pyrophosphate], at TcHGXPRT [2] (setting [5]), the kcat worked out at 0.44 ± 0.02 s^–1 and the Ki was 0.6 ± 0.3 µM. At TcHGXPRT [2] (setting [4]), this molecule had a Ki of 0.7 ± 0.2 µM. In the test with TcHGPRT, the KPRPP was 32 ± 5 ^d μM and the kcat/KPRPP is 1010 ^d × 10^3 M^–1 s^–1.
Turning to `O=c1[nH]c(=O)c2nc[nH]c2[nH]1` [Xan, xanthine], in the test on TcA (HGPRT), the Km was 160 ± 40 µM and the kcat is 0.005 ± 0.0006 ^b s^–1. For the same molecule, in the test on PfHGXPRT, the Km is 189 to 420 µM.

These data come from article PMC10357585 (Biochemistry, 2023).
